For one test, the system named is SKMEL5 (melanoma). In words: MTT assay, SKMEL5 cells. The test is classed as cell-based, human. The method, then: (§1) In order to evaluate the anticancer activity of aristoloxazine isolated in Example 1, the cytotoxic activity against 14 human cancer cell lines including SKMEL5 (melanoma), A431 (non-melanoma skin), PC3 (prostate), A549 (lung), HT1080 (fibrosarcoma), OVCAR3 (ovary), HCT116 (colon), AGS (stomach), HepG2 (liver), MCF7 (breast cancer), K562 (leukemia), U-87 (glioma), ACHN (renal adenocarcinoma) and Caki (clear cell kidney cancer) was evaluated.
(§2) Cells were seeded (1 to 2.5×10^3 cells per well) in 96-well plates and then allowed to settle overnight. Next, the cells were treated with different doses of the compound for 24 hours, 48 hours or 72 hours in a 37° C. CO2 incubator, and 20 μL of MTT ((4,5-dimethylthiazol-2-yl)-2,5-diphenyltetrazolium bromide reagent (Sigma-Aldrich, Inc., St. Louis, MO, USA) was added to each well. After 1 to 2 hours, the medium was discarded, and 100 μL of DMSO (dimethyl sulfoxide, VWR Life Science, Ohio, USA) was added, and then, absorbance was measured at 570 nm by using a Multiskan Skyhigh microplate spectrophotometer (Thermo Scientific, Singapore). 5-FU was used as a positive control. The extract in Table 2 was a 70% ethanol Asarum heterotropoides root extract obtained in the process of preparing the Asarum heterotropoides root fraction of Example 1-2.
For orientation: Tetrazolium dyes change colour on reduction, which living cells bring about.

A further test concerns HT1080 (fibrosarcoma). In words: MTT assay, HT1080 cells. The format is cell-based, human. The method, then:
as §1, §2

The next test has as its system K562 (leukemia). In words: MTT assay, K562 cells. The format is cell-based, human. The settings on record: K562, 72 h. The procedure:
as §1, §2

The subject of a further test is AGS (stomach cancer). In words: MTT assay, AGS cells. The settings on record: 72 h. The format is cell-based, human. The procedure: as §1, §2
Test [1] has as its system ACHN (renal adenocarcinoma). In words: MTT assay, ACHN cells. The format is cell-based, human. The settings on record: 72 h. The procedure:
as §1, §2

In test [2] the test system is A431 (non-melanoma skin cancer). The experiment in a line: MTT assay, A431 cells. The format is cell-based, human. The method, then:
as §1, §2

A further test has as its system U-87 (glioma). In words: MTT assay, U-87 cells. The format is cell-based, human. The settings on record: U-87, 72 h. The procedure: as §1, §2
The test system of test [3] is Caki (clear cell kidney cancer). In words: MTT assay, Caki cells. The test is classed as cell-based, human. The conditions noted are these: 72 h. The procedure:
as §1, §2

A further test deals with A549 (lung cancer). The experiment in a line: MTT assay, A549 cells. The settings on record: A549, 72 h. The test is classed as cell-based, human. The procedure: as §1, §2
For a further test, the system named is HCT116 (colon cancer). In words: MTT assay, HCT116 cells. The test is classed as cell-based, human. The method, then:
as §1, §2

In test [4] the test system is 14 human cancer cell lines. The experiment in a line: MTT assay, panel of all cancer cell lines tested. The format is cell-based. The conditions noted are these: span over all cancer cell lines tested, read-out: IC50 values, cytotoxicity against all cells that were tested. The method, then: as §1, §2
In the next test the test system is MCF7 (breast cancer). The experiment in a line: MTT assay, MCF7 cells. The format is cell-based. The settings on record: Homo sapiens, MCF7, 72 h. The method, then: as §1, §2
A further test has as its system PC3 (prostate cancer). The experiment in a line: MTT assay, PC3 cells. The conditions noted are these: Homo sapiens, PC-3, PC3, 72 h. The format is cell-based. The method, then: as §1, §2
Another test has as its system OVCAR3 (ovarian cancer). In words: MTT assay, OVCAR3 cells. The test is classed as cell-based. The conditions noted are these: Homo sapiens, OVCAR-3, OVCAR3, 72 h. The method, then:
as §1, §2

For another test, the system named is HepG2 (liver cancer). In words: MTT assay, HepG2 cells. The conditions noted are these: Homo sapiens, HepG2, 72 h. The test is classed as cell-based. The procedure:
as §1, §2

From patent US20250059203A1, “USE OF ARISTOLOXAZINE C HAVING ANTICANCER ACTIVITY” (KOREA INSTITUTE OF ORIENTAL MEDICINE, priority 2021, published 2025) come the findings set out here.

Take `O=c1[nH]cc(F)c(=O)[nH]1` [Compound 5-FU, 5-FU, reference compound]: the IC50 (commonly the concentration that gives 50% inhibition) with SKMEL5 (melanoma) (SKMEL5, 72 h) is 8400 ± 700 nM; with HT1080 (fibrosarcoma) (HT1080, 72 h) it was 4900 ± 100 nM; with K562 (leukemia), 6700 ± 200 nM; with AGS (stomach cancer), 3200 ± 100 nM; in test [1], 9100 ± 2900 nM; in test [2] (A431, 72 h), 1000 ± 30 nM. The IC50 in the test on U-87 (glioma) worked out at 9000 ± 200 nM; in test [3], 9900 ± 200 nM; in the test on A549 (lung cancer), 2400 ± 100 nM; in the test on HCT116 (colon cancer) (HCT116, 72 h), 3500 ± 100 nM.

Turning to `COc1cccc2c1[C@H](SCC(N)=O)c1noc(=O)c3cc4c(c-2c13)OCO4` [Aristoloxazine C], the IC50 was 72.1 ± 0.4 nM with SKMEL5 (melanoma) (Homo sapiens, SK-MEL-5, SKMEL5, 72 h); 143 ± 2.3 nM in the test on HT1080 (fibrosarcoma) (Homo sapiens, HT-1080, HT1080, 72 h); 17.8 to 374 nM in test [4]; 78.6 ± 2 nM with K562 (leukemia) (Homo sapiens); 22.1 ± 0.8 nM in the test with AGS (stomach cancer) (Homo sapiens); 46.4 ± 2 nM in the test with MCF7 (breast cancer). For the same compound, the IC50 stood at 17.8 ± 0.1 nM in test [1] (Homo sapiens); 84.3 ± 2 nM in the test with PC3 (prostate cancer); 85.7 ± 2.5 nM in test [2] (Homo sapiens, A-431, A431, 72 h); 374 ± 12 nM with OVCAR3 (ovarian cancer); 57.8 ± 5.5 nM in the test with U-87 (glioma) (Homo sapiens, U-87 MG); 65.4 ± 2.9 nM in test [3] (Homo sapiens). Also, the IC50 in the test on A549 (lung cancer) (Homo sapiens) was 25.7 ± 0.7 nM; with HepG2 (liver cancer), 149.2 ± 0.7 nM; with HCT116 (colon cancer) (Homo sapiens, HCT-116, HCT116, 72 h) it was 29.3 ± 0.2 nM.
